Measured values taken from US11660298B1, “Preventing thermal trauma by pre-treatment with Icilin” (priority 2019, dated 2023).

Tests used:
Interleukin-1β (IL-1β) = test: Indirect ELISA of IL-1β expression in fibroblasts; assay type: cell-based, Human
Description: (§1) Human Foreskin Fibroblasts (HFF) (ATCC, Manassas, Va.) were cultured in Dulbecco's Modified Eagle Medium Nutrient Mixture F-12 with 10% Fetal Bovine Serum, 1% penicillin streptomycin. 0.05% Trypsin EDTA was used for subculture (Invitrogen, Grand Isl., N.Y.). Cells were incubated at 370 Celsius and 5% CO2, and grown in 96 well, T25 or T75 Corning Tissue Culture vessels. When cells became confluent, they were trypsinized using 0.05% trypsin/EDTA. Cells used for the various assays were plated at 0.2×10^6 cells/mL unless otherwise noted. Fibroblasts were selected due to their critical role in skin wound recovery. Fibroblasts were fluorescently imaged with a Nikon Eclipse TS100 Microscope (Nikon, Melville, N.Y.). An in vitro burn model was created to replicate the severity of a third-degree burn. Cells were plated in a Polystyrene 96 Well Plate (100 μL per well) then burned in a VWR Incubating Micro Plate Shaker (VWR, Bridgeport, N.J.) via its adjustable heat setting. Thermal trauma (burning) was determined to take place at 50° C. for a total of 7.5 minutes (FIG. 1b). This temperature represented cell viability >50% 24 hours after the thermal injury treatment. Temperature of plate was confirmed using a Fluke 63 Infrared Thermometer (Fluke, Phoenix, Ariz.). […] The 96-well plate was read to measure absorbance at 405 nm in a microplate reader (BioTek, Winooski, Vt.).

Interleukin-8 (IL-8) = test: Indirect ELISA of IL-8 expression in fibroblasts; assay type: cell-based, Human; conditions: non-thermally challenged and thermally challenged fibroblasts, Icilin 0.0002-0.02 nM
Description: as §1

[1] = tested on: Reactive Oxygen Species (ROS); test: ROS-Glo H2O2 assay of Reactive Oxygen Species in fibroblasts; assay type: cell-based, Human
Description: Human Foreskin Fibroblasts (HFF) (ATCC, Manassas, Va.) were cultured in Dulbecco's Modified Eagle Medium Nutrient Mixture F-12 with 10% Fetal Bovine Serum, 1% penicillin streptomycin. 0.05% Trypsin EDTA was used for subculture (Invitrogen, Grand Isl., N.Y.). Cells were incubated at 370 Celsius and 5% CO2, and grown in 96 well, T25 or T75 Corning Tissue Culture vessels. When cells became confluent, they were trypsinized using 0.05% trypsin/EDTA. Cells used for the various assays were plated at 0.2×10^6 cells/mL unless otherwise noted. Fibroblasts were selected due to their critical role in skin wound recovery. Fibroblasts were fluorescently imaged with a Nikon Eclipse TS100 Microscope (Nikon, Melville, N.Y.). An in vitro burn model was created to replicate the severity of a third-degree burn. Cells were plated in a Polystyrene 96 Well Plate (100 μL per well) then burned in a VWR Incubating Micro Plate Shaker (VWR, Bridgeport, N.J.) via its adjustable heat setting. Thermal trauma (burning) was determined to take place at 50° C. for a total of 7.5 minutes (FIG. 1b). This temperature represented cell viability >50% 24 hours after the thermal injury treatment. […] ROS was measured through ROS-GIo™ H2O2 Assay (Promega, Madison, Wis.). […] The well plate was then incubated at room temperature for 20 minutes then measured for luminescence (see FIG. 7).

[2] = tested on: Transient receptor potential cation channel subfamily M member 8 (TRPM8); test: TRPM8 expression levels in fibroblasts; assay type: cell-based, Human
Description: Human Foreskin Fibroblasts (HFF) (ATCC, Manassas, Va.) were cultured in Dulbecco's Modified Eagle Medium Nutrient Mixture F-12 with 10% Fetal Bovine Serum, 1% penicillin streptomycin. 0.05% Trypsin EDTA was used for subculture (Invitrogen, Grand Isl., N.Y.). Cells were incubated at 370 Celsius and 5% CO2, and grown in 96 well, T25 or T75 Corning Tissue Culture vessels. When cells became confluent, they were trypsinized using 0.05% trypsin/EDTA. Cells used for the various assays were plated at 0.2×10^6 cells/mL unless otherwise noted. Fibroblasts were selected due to their critical role in skin wound recovery. Fibroblasts were fluorescently imaged with a Nikon Eclipse TS100 Microscope (Nikon, Melville, N.Y.). An in vitro burn model was created to replicate the severity of a third-degree burn. Cells were plated in a Polystyrene 96 Well Plate (100 μL per well) then burned in a VWR Incubating Micro Plate Shaker (VWR, Bridgeport, N.J.) via its adjustable heat setting. Thermal trauma (burning) was determined to take place at 50° C. for a total of 7.5 minutes (FIG. 1b). This temperature represented cell viability >50% 24 hours after the thermal injury treatment. Temperature of plate was confirmed using a Fluke 63 Infrared Thermometer (Fluke, Phoenix, Ariz.). […]

Interleukin-6 (IL-6) = test: Indirect ELISA of IL-6 expression in fibroblasts; assay type: cell-based, Human
Description: as §1

[3] = tested on: Human Foreskin Fibroblasts (HFF); test: Fibroblast viability in the in vitro burn model (MTS / trypan blue exclusion); assay type: cell-based; conditions: thermally challenged fibroblasts (50° C., 7.5 minutes), Icilin pre-treatment 0.0002-0.02 nM in DMSO, vs untreated burned fibroblasts, about 24 hours after burning
Description: as §1, with “treatment. […] Proliferation” for “treatment. Temperature of plate”, “was determined” for “was confirmed”, “using the MTS assay.” for “using a Fluke 63 Infrared Thermometer (Fluke, Phoenix, Ariz.).”, “at 490” for “at 405”, “nm using” for “nm in”, “Vt.). Viability was determined by trypan blue exclusion assays. […]” for “Vt.).”

TRPM8 = TRPM8 (Homo sapiens, UniProt Q7Z2W7); conditions: super-cooling chemical; comparison with menthol; cited from earlier work
Sequence of TRPM8 (Q7Z2W7 whole entry, species assumed): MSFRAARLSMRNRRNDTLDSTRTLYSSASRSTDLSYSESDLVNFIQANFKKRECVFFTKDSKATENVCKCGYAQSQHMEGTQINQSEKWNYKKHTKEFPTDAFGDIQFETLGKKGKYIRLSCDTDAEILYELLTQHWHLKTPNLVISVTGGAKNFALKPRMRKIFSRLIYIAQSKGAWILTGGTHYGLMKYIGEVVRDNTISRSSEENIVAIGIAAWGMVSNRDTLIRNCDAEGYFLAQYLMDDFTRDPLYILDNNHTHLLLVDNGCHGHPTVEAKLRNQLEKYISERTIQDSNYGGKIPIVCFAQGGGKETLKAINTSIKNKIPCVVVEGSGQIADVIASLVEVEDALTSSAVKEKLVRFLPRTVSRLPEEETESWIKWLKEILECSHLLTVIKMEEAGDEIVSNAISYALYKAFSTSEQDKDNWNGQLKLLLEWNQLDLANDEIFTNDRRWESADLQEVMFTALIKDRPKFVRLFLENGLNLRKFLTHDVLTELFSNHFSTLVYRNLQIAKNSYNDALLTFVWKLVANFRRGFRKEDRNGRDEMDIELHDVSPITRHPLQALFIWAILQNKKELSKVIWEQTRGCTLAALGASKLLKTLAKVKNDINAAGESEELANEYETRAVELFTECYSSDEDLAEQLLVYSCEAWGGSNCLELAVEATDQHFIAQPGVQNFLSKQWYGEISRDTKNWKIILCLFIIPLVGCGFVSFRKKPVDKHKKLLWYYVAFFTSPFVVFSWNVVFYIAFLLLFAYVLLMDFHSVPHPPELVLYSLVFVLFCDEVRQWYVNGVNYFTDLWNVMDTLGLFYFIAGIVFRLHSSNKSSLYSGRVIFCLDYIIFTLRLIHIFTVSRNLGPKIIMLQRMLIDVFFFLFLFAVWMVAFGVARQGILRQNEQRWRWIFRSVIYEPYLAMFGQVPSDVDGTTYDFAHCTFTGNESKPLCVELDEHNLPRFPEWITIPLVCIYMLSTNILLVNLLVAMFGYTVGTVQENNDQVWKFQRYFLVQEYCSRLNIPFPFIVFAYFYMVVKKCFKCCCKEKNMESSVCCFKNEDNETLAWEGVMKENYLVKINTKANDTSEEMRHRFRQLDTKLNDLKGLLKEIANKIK

[4] = tested on: Tumor Necrosis Factor-α (TNF-α); test: Indirect ELISA of TNF-α expression in fibroblasts; assay type: cell-based, Human
Description: as §1

[5] = non-thermally challenged fibroblasts, all Icilin concentrations

O=C1NC(c2cccc([N+](=O)[O-])c2)=CCN1c1ccccc1O [Icilin]
IL-1β expression (Interleukin-1β (IL-1β); non-thermally challenged fibroblasts, increasing concentrations of Icilin): IL-1β expression also increases
IL-1β levels compared with non-thermally challenged fibroblasts at the same Icilin concentration (Interleukin-1β (IL-1β); thermally challenged fibroblasts, Icilin pre-treatment, all concentrations): below the levels of the non-thermally challenged fibroblasts
IL-8 expression (Interleukin-8 (IL-8)): no noteworthy effect on IL-8 expression
ROS levels [1, 5]: significantly reduces ROS levels
ROS levels ([1]; thermally challenged fibroblasts, Icilin pre-treatment at 0.02 nM): essentially restore ROS levels of thermally challenged fibroblasts to their normal quantities
TRPM8 expression [2, 5]: significantly increased
TRPM8 expression ([2]; thermally challenged fibroblasts, Icilin pre-treatment): increase in TRPM8 expression was maintained
IL-6 expression (Interleukin-6 (IL-6); non-thermally challenged fibroblasts, Icilin 0.0002-0.02 nM): increased IL-6 expression
IL-6 expression (Interleukin-6 (IL-6); thermally challenged fibroblasts, Icilin pre-treatment 0.0002-0.02 nM): significant decrease in IL-6 expression
fibroblast viability [3]: significantly higher than the untreated burned fibroblasts
potency relative to menthol (TRPM8): 200 times
TNF-α expression ([4]; fibroblasts without thermal treatment, increasing Icilin concentrations): steady increase in TNF-α expression
TNF-α expression ([4]; thermally challenged fibroblasts, Icilin pre-treatment, increasing concentrations): dropped significantly
